According to patent US20040072139A1, “Photodynamic treatment and uv-b-irradiation of a thrombocyte suspension” (priority 2000, published 2004):

Experiments:
T-lymphocytes = assay: Inactivation of T lymphocytes in PC, ConA-stimulated BRDU proliferation assay; type: cell-based; conditions: for Absorption OD450 nm (BRDU incorporation rate): ConA activation, three days cultivation
HIV-1 = type: cell-based, human immunodeficiency virus, Type 1
platelets [1] = assay: Hypotonic shock reaction (HSR) of treated platelet suspensions
CSFV = type: cell-based, classical swine fever virus
VSV = type: cell-based, vesicular stomatitis virus
SHV-1 = type: cell-based, suid herpesvirus 1
BVDV = type: cell-based, bovine viral diarrhoea virus
SV-40 = type: cell-based, simian virus-40
platelets [2] = assay: Collagen-induced aggregation of treated platelet suspensions
SFV = type: cell-based, Semliki Forest virus
[3] = Experiment 1, Day 1 after treatment, thionine/light + UV-B 2.4 J/cm^2
[4] = Experiment 1, Day 1 after treatment, thionine/light alone
[5] = Experiment 1, Day 3 after treatment, thionine/light + UV-B 2.4 J/cm^2
[6] = Experiment 1, Day 3 after treatment, thionine/light alone
[7] = Experiment 2, Day 1 after treatment, thionine/light + UV-B 2.4 J/cm^2
[8] = Experiment 2, Day 1 after treatment, thionine/light alone
[9] = Experiment 2, Day 3 after treatment, thionine/light + UV-B 2.4 J/cm^2
[10] = Experiment 2, Day 3 after treatment, thionine/light alone
[11] = Experiment 3, Day 1 after treatment, thionine/light + UV-B 2.4 J/cm^2
[12] = Experiment 3, Day 1 after treatment, thionine/light alone
[13] = Experiment 3, Day 3 after treatment, thionine/light + UV-B 2.4 J/cm^2
[14] = Experiment 3, Day 3 after treatment, thionine/light alone
[15] = combined treatment with thionine/light and UV-B compared with photodynamic treatment alone

Cl.N=c1ccc2nc3ccc(N)cc3sc-2c1 [Thionine/light, Thionine]
UV-B irradiation time required for complete inactivation of the cells (T-lymphocytes; PC additionally treated with thionine/light (2 μM, 30 min), at least 4 min with UV-B alone): approximately 3 min
Absorption OD450 nm (BRDU incorporation rate) (T-lymphocytes; Th/light (2 μM, 30 min) then UV-B 0.6 J/cm^2): 1.020
Absorption OD450 nm (BRDU incorporation rate) (T-lymphocytes; Th/light (2 μM, 30 min) then UV-B 0.9 J/cm^2): 0.387
Absorption OD450 nm (BRDU incorporation rate) (T-lymphocytes; Th/light (2 μM, 30 min) then UV-B 1.2 J/cm^2): 0.240
Influence on the proliferation of the cells (in words) (T-lymphocytes; thionine/light alone (2 μM, 30 min)): no influence
Reduction of virus titre (HIV-1): ≧5.7 log10TCID50
HSR (platelets [1]; [3]): 47.86%
HSR (platelets [1]; [4]): 65.49%
HSR (platelets [1]; [5]): 51.16%
HSR (platelets [1]; [6]): 49.16%
HSR (platelets [1]; [7]): 42.37%
HSR (platelets [1]; [8]): 56.24%
HSR (platelets [1]; [9]): 30.26%
HSR (platelets [1]; [10]): 52.61%
HSR (platelets [1]; [11]): 54.45%
HSR (platelets [1]; [12]): 69.30%
HSR (platelets [1]; [13]): 48.31%
HSR (platelets [1]; [14]): 55.49%
Influence on HSR (in words) (platelets [1]; [15]): neither the HSR (hypotonic shock reaction) nor the collagen-induced aggregation of platelet concentrates is substantially more strongly influenced
Inactivation of virus (in words) (CSFV): completely inactivated
Reduction of virus titre (CSFV): ≧5.5 log10TCID50
Infectivity (in words) (VSV): still not completely eliminated
Reduction of virus titre (VSV): 4.4 log10TCID50
Reduction of virus titre (SHV-1): ≧3.6 log10TCID50
Inactivation of virus (in words) (BVDV): completely inactivated
Reduction of virus titre (BVDV): ≧4.9 log10TCID50
Infectivity (in words) (SV-40): still not completely eliminated
Reduction of virus titre (SV-40): 3.9 log10TCID50
collagen-induced aggregation (platelets [2]; [3]): 69.75%
collagen-induced aggregation (platelets [2]; [4]): 73.25%
collagen-induced aggregation (platelets [2]; [5]): 16.75%
collagen-induced aggregation (platelets [2]; [6]): 13.75%
collagen-induced aggregation (platelets [2]; [7]): 76.67%
collagen-induced aggregation (platelets [2]; [8]): 84.67%
collagen-induced aggregation (platelets [2]; [9]): 53.50%
collagen-induced aggregation (platelets [2]; [10]): 27.67%
collagen-induced aggregation (platelets [2]; [11]): 58.33%
collagen-induced aggregation (platelets [2]; [12]): 69.67%
collagen-induced aggregation (platelets [2]; [13]): 30.33%
collagen-induced aggregation (platelets [2]; [14]): 15.67%
Influence on collagen-induced aggregation (in words) (platelets [2]; [15]): neither the HSR (hypotonic shock reaction) nor the collagen-induced aggregation of platelet concentrates is substantially more strongly influenced
Inactivation of virus (in words) (SFV): completely inactivated
Reduction of virus titre (SFV): ≧5.2 log10TCID50
